In patent US9005614B2, “PRLR-specific antibody and uses thereof” (Novartis AG, priority 2006, dated 2015):
Positions count from the first letter of the chain named. Read-outs that look alike come from different tables or passages of the source.

B1: he.06.275-1: HUMAN-ENGINEERED antibody from XHA.06.275; variable regions SEQ ID NO: 91 and SEQ ID NO: 93 by order of listing (antibody, V domains shown)
VH: DVQLQESGPGLVKPSQTLSLTCTVTGYSITSDYAWNWIRQFPGKKLEWMGYISYSGSTSYNPSLKSRITISRDTSKNQFSLQLNSVTAADTATYFCARDYGYVFDYWGQGTTLTVSS
VL: DVQITQSPSSLSASPGDRITLTCRASKNIYKYLAWYQEKPGKTNNLLIYSGSTLHSGIPSRFSGSGSGTDFTLTISSLQPEDFAMYYCQQHNDYPYTFGQGTKLEIK
B2: he.06.275-3: HUMAN-ENGINEERED antibody from XHA.06.275; variable regions SEQ ID NO: 92 and SEQ ID NO: 93 by order of listing (antibody, V domains shown)
VH: B1 VH
VL: B1 VL with T43A, N45K
B3: he.06.275-2: HUMAN-ENGINEERED antibody from XHA.06.275; variable regions SEQ ID NO: 91 and SEQ ID NO: 94 by order of listing (antibody, V domains shown)
VH: B1 VH with D1Q, T25S, K45G, T93V
VL: B1 VL

Assays:
BaF3/PRLR cells = experiment: In vitro combination of anti-PRLR mAbs and chemotherapeutics, cell survival (CellTiter Glo); assay type: cell-based; conditions: 5 days
Protocol: Cell survival was determined by CellTiter Glo analysis and is reported aS RLU (y-axis).
Due to the possibility that a potential anti-PRLR therapeutic antibody may be administered in conjunction with cytotoxic drug regimens in the clinic, the effects of such combination therapies on cell survival in culture was investigated. […] An array of clinically-relevant and mechanistically diverse cytotoxic agents were utilized in this assay: Doxorubicin (an anthracycline Topo II inhibitor), Taxol (a microtubule stabilizing agent), Fludarabine (an anti-metabolite), and Cisplatin (a platinum-based DNA cross-linking drug).

cynomolgus PRLR ECD = target: T1, cynomolgus PRLR ECD (Macaca fascicularis, UniProt A0A2K5WXK1); experiment: Biacore kinetic titration, antibody captured on Protein A/G; assay type: binding; conditions: Table 9, Cyno PRLR ECD; unit not given
T1 construct: antibodies against human and cynomolgus PRLR ECD
T1 sequence (A0A2K5WXK1 25-234): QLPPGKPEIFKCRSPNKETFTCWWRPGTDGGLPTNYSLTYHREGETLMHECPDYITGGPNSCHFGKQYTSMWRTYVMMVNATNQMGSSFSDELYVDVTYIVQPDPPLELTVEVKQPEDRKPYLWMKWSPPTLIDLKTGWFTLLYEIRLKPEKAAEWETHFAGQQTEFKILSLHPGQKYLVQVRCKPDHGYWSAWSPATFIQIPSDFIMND
Protocol: (§1) Affinity of the chimerized and HUMAN ENGINEERED™ antibodies determined by Biacore analysis. Briefly, a CM5 sensor chip (Biacore) immobilized with Protein A/G (Pierce) via NHS/EDC was used to capture approximately 600 RU of antibody on the chip surface. Five concentrations of PRLR ECD beginning at 5 ug/mL (185 nM) and serially diluted at 5× dilution to 0.3 nM were injected from lowest to highest concentration in the kinetic titration injection mode, and 15 minutes of dissociation data was collected. The experiments were double-referenced, i.e. an adjacent flow cell response was subtracted automatically, and the response from a buffer injection experiment was subtracted from the experimental data set. Kinetic and derived parameters (ka, kd and KD) were determined by fitting to a 1:1 Langmuir model using BiaEval software customized to the kinetic titration injection mode. Affinity measurements of both chimeric and all HUMAN ENGINEERED™ antibodies against human and cynomolgus PRLR ECD are summarized in Table 9 and Table 10.

human PRLR ECD = target: T2, human PRLR ECD (Homo sapiens, UniProt P16471); experiment: as above; assay type: binding; conditions: Table 9, Human PRLR ECD; unit not given
T2 construct: His6 (C); made in house; host or cells: Tn5 insect cells, baculovirus
T2 sequence (P16471 25-234): T1 sequence (A0A2K5WXK1 25-234) with V76I, T110A, M125I, T158I, I207T
Protocol: as §1

[1] = Mus musculus, 120 h, co-administered anti-KLH control Ab 1 ug/ml, read-out: chemotherapeutic IC50 with KLH (1 ug/ml)
[2] = Mus musculus, 120 h, co-administered chXHA.06.275 1 ug/ml, read-out: chemotherapeutic IC50 with chXHA.06.275 (1 ug/ml)
[3] = Mus musculus, 120 h, co-administered chXHA.06.642 1 ug/ml, read-out: chemotherapeutic IC50 with chXHA.06.642 (1 ug/ml)

Row | Molecule | IC50 (BaF3/PRLR cells; [1]) | IC50 (BaF3/PRLR cells; [2]) | IC50 (BaF3/PRLR cells; [3]) | ka (cynomolgus PRLR ECD) | kd (cynomolgus PRLR ECD) | ka (human PRLR ECD) | kd (human PRLR ECD) | further results
1 | COc1cccc2c1C(=O)c1c(O)c3c(c(O)c1C2=O)C[C@@](O)(C(=O)CO)C[C@@H]3O[C@H]1C[C@H](N)[C@H](O)[C@H](C)O1 [Doxorubicin] | 0.00644 µM | 0.00256 µM | 0.00214 µM |  |  |  |  | 
2 | Nc1nc(F)nc2c1ncn2[C@@H]1O[C@H](CO)[C@@H](O)[C@@H]1O [Fludarabine] | 105 µM | 93.8 µM | 40 µM |  |  |  |  | 
3 | CC(=O)O[C@H]1C(=O)[C@@]2(C)[C@H]([C@H](OC(=O)c3ccccc3)[C@]3(O)C[C@H](OC(=O)[C@H](O)[C@@H](NC(=O)c4ccccc4)c4ccccc4)C(C)=C1C3(C)C)[C@]1(OC(C)=O)CO[C@@H]1C[C@@H]2O [Taxol] | 0.00414 µM | 0.00245 µM | 0.00207 µM |  |  |  |  | 
4 | N.N.[Cl][Pt][Cl] [Cisplatin] |  |  |  |  |  |  |  | IC50 (BaF3/PRLR cells; co-administered anti-KLH control Ab 1 ug/ml, read-out: chemotherapeutic IC50 with KLH (1 ug/ml)): 0.166 µM; IC50 (BaF3/PRLR cells; co-administered chXHA.06.275 1 ug/ml, read-out: chemotherapeutic IC50 with chXHA.06.275 (1 ug/ml)): 0.0468 µM; IC50 (BaF3/PRLR cells; co-administered chXHA.06.642 1 ug/ml, read-out: chemotherapeutic IC50 with chXHA.06.642 (1 ug/ml)): 0.0276 µM
5 | B1 |  |  |  | 3.6E+05 | 5.7E−04 | 6.2E+05 | 3.1E−04 | 
6 | B2 |  |  |  | 3.9E+05 | 5.0E−04 | 6.4E+05 | 2.7E−04 | 
7 | B3 |  |  |  | 3.7E+05 | 6.9E−04 | 6.0E+05 | 3.7E−04 | 
